{"source": "PubChem BioAssay AID2078", "about": "(The Scripps Research Institute Molecular Screening Center, 2009)", "system": "Cytotoxicity", "assay": "STAT3 blockade with qPCR and toxicity readouts – cell-based, STAT1 panel, cytotoxicity, late-stage follow-up (AID 2078)", "conditions": "STAT3/STAT1 inhibition panel, cell reporter assay", "data": [{"smiles": "c1ccc(CC2CCN(c3ncnc4sccc34)CC2)cc1", "values": [{"measurement": "CC50", "result": "> 55.7", "unit": "µM"}]}]}
